Test results reported in PMC6751662, “Pharmacological and functional similarities of the human neuropeptide Y system in C. elegans challenges phylogenetic views on the FLP/NPR system” (Cell Communication and Signaling : CCS, 2019).

Legend:
Assay type in all cases: cell-based, C. elegans
[1] = target: T1, NPR-11 (Caenorhabditis elegans, UniProt Q18179); assay: IP accumulation assay, endogenous Gαq + mock, NPR-11; settings: 1 h, HBSS + 20 mM LiCl, HEK293 receptor + empty vector, HTRF IP-One, mean of >=3 independent experiments
T1 construct: expressed in transfected cells; host or cells: HEK293, transient
T1 sequence (Q18179 1-402): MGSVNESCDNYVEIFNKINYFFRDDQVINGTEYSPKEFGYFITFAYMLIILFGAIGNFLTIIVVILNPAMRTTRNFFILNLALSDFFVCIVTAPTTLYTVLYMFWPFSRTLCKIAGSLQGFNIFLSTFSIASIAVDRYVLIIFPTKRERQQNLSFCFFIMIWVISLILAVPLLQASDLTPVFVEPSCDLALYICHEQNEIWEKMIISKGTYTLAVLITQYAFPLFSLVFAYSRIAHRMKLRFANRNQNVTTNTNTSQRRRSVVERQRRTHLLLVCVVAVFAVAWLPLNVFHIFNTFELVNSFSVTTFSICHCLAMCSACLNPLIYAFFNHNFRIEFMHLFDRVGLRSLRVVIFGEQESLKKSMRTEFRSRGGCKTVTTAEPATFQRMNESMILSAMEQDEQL
Protocol: (§1) For measuring IP accumulation, HEK293 cells grown to 70–80% confluency in 6-well plates were transiently co-transfected using Metafectene Pro (2.5 μl/μg DNA; Biontex) with plasmids containing receptor and/or mock (empty pcDNA3.1) (for endogenous Gq-coupling) using 4 μg total DNA in a ratio of 3:1 following the manufacturer’s instructions. For testing Gα16- and GαΔ6qi4myr-coupling, plasmids encoding the corresponding Gα protein were co-transfected instead of mock. Gα16 is naturally promiscuous and stimulates the phospholipase C (PLC) pathway leading to IP production, while the exchange of the C-terminal four amino acids of Gαq for the corresponding residues of Gαi1 in the chimeric GαΔ6qi4myr confers the ability to couple to Gi/o protein-preferring receptors but still stimulate PLC, thus specifically redirecting downstream cellular signaling. 16 h post transfection, the cells were seeded into white 384-well plates at a density of 20,000 cells/well. Media was removed 24 h later and the cells were incubated with the indicated concentration of peptides for 1 h in HBSS + 20 mM LiCl. IP accumulation was measured with the HTRF-based IP-One Gq kit (Cisbio) on a microplate reader (Tecan Spark).
(§2) For in vitro activation, data is presented as mean ± SEM of at least three independent experiments conducted in technical triplicate. […]

[2] = target: T2, NPR-1 (Caenorhabditis elegans, UniProt Q18534); assay: IP accumulation assay, endogenous Gαq + mock, NPR-1; parameters: host or cells: HEK293; settings: 1 h, HBSS + 20 mM LiCl, HEK293 receptor + empty vector, HTRF IP-One, mean of >=3 independent experiments
T2 sequence (Q18534 1-457): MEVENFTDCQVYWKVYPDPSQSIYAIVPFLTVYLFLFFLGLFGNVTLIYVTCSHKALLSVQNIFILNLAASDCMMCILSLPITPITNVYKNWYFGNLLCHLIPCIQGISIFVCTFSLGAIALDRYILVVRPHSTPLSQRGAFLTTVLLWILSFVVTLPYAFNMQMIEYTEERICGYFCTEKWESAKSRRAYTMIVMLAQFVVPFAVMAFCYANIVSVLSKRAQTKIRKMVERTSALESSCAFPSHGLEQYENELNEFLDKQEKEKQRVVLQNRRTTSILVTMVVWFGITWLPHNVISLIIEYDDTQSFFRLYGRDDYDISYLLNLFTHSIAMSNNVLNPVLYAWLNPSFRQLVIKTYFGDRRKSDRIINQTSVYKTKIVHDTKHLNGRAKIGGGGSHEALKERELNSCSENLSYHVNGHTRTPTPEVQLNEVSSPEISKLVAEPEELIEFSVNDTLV
Protocol: as §1, §2

[3] = target: T2, NPR-1; assay: cAMP reporter gene assay, Gs (no forskolin), NPR-1; parameters: host or cells: HEK293; settings: no forskolin, 4 h, transiently transfected HEK293, CRE-luciferase reporter, mean of >=3 independent experiments
Protocol: (§3) Activation of Gs and Gi/o was assessed with a cAMP reporter gene assay. HEK293 cells grown to 70–80% confluency in 6-well plates were transiently co-transfected with vectors encoding the receptor and the cAMP reporter gene plasmid pGL4.29 [luc2P/CRE/Hygro] (Promega; 4 μg total, 1:1 ratio) using Metafectene Pro (3 μl/μg DNA; Biontex) following the manufacturer’s instructions. 16 h post transfection, the cells were seeded into white 384-well plates at a density of 20,000 cells/well. On the next day, the medium was removed and the cells were stimulated with 20 μl of peptide solution (or forskolin as positive control) in serum-free DMEM for 4 h. For measuring Gi/o activity, the peptide solutions additionally contained 1 μM forskolin to elevate cellular cAMP levels. After incubation, the luciferase substrate OneGlo in lysis buffer (Promega) was added and the luminescence was measured in a microplate reader Tecan Spark (Tecan). Data were analyzed with GraphPad Prism 5.03 and are shown as fold of basal or fold of forskolin in case of Gαi/o activity.
(§4) For in vitro activation, data is presented as mean ± SEM of at least three independent experiments conducted in technical triplicate. […] For the C. elegans NPRs, we considered the strongest response elicited by any of the peptides downstream of a particular receptor as the receptor’s maximal signal. This may or may not be the biological maximum that can be reached by the ‘true’ endogenous agonist. For the human receptors, the response to the established endogenous agonist reflected the maximal signal.

[4] = target: T1, NPR-11; assay: cAMP reporter gene assay, Gs (no forskolin), NPR-11; settings: no forskolin, 4 h, transiently transfected HEK293, CRE-luciferase reporter, mean of >=3 independent experiments
Protocol: as §3, §4

[5] = target: T1, NPR-11; assay: IP accumulation assay, co-transfected Gα16, NPR-11; settings: 1 h, HBSS + 20 mM LiCl, HEK293 receptor + Gα16, HTRF IP-One, mean of >=3 independent experiments
Protocol: as §1, §2

[6] = target: T3, NPR-3 (Caenorhabditis elegans, UniProt P90745); assay: IP accumulation assay, endogenous Gαq + mock, NPR-3; settings: 1 h, HBSS + 20 mM LiCl, HEK293 receptor + empty vector, HTRF IP-One, mean of >=3 independent experiments
T3 construct: expressed in transfected cells; host or cells: HEK293
T3 sequence (P90745 1-376): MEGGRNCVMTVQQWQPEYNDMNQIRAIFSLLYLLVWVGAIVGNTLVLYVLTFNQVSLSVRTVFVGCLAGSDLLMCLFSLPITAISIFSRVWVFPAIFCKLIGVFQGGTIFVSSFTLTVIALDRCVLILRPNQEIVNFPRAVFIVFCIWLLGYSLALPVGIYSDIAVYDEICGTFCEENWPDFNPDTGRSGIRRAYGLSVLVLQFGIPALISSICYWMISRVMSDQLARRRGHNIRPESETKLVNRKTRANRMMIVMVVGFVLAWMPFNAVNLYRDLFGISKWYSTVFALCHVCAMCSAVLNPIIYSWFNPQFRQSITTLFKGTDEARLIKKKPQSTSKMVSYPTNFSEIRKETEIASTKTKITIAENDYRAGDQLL
Protocol: as §1, §2

[7] = 0.1 nM peptide (so in the source)

APKPKFIRF-NH2 [FLP-5-1, C. elegans FMRFamide-like peptide, C-terminally amidated, synthesized by SPPS]
IP assay endog. Gαq + mock, NPR-11 [1, 7]: 1.05 x-fold of basal
IP assay endog. Gαq + mock, NPR-11 ([1]; 10 µM peptide): 1.09 x-fold of basal
IP assay endog. Gαq + mock, NPR-1 [2, 7]: 0.89 x-fold of basal
IP assay endog. Gαq + mock, NPR-1 ([2]; 10 µM peptide): 0.94 x-fold of basal
cAMP assay Gs, NPR-1 ([3]; 0.1 µM peptide): 1.12 x-fold of basal
cAMP assay Gs, NPR-1 ([3]; 10 µM peptide): 1.05 x-fold of basal
cAMP assay Gs, NPR-11 ([4]; 0.1 µM peptide): 0.70 x-fold of basal
cAMP assay Gs, NPR-11 ([4]; 10 µM peptide): 0.69 x-fold of basal
IP assay endog. Gαq + Gα16, NPR-11 [5, 7]: 1.04 x-fold of basal
IP assay endog. Gαq + Gα16, NPR-11 ([5]; 10 µM peptide): 0.84 x-fold of basal
IP assay endog. Gαq + mock, NPR-3 [6, 7]: 0.92 x-fold of basal
IP assay endog. Gαq + mock, NPR-3 ([6]; 10 µM peptide): 1.07 x-fold of basal
